The target of the experiment is T1, recombinant human ALX receptor (Homo sapiens, UniProt P25090).
T1 construct: expressed in transfected cells; host or cells: HEK293 (HEK293-hALXR-Gα16)
T1 sequence (P25090 1-351): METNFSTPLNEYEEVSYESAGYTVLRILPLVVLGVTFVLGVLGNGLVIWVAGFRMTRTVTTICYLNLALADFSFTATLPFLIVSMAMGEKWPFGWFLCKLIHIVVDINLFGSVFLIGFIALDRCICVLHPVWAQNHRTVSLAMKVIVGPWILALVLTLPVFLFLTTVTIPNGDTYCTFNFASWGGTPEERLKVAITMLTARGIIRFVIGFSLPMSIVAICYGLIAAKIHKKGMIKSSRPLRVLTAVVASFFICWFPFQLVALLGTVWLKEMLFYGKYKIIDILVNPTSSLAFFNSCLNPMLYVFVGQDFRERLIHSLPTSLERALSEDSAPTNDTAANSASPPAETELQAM
The experiment is described as follows: Intracellular calcium measurements (FLIPR), ALX receptor agonistic activity. The class given is cell-based. The following applies: HEK293-hALXR-Gα16 cells, Fluo-4 calcium signal, normalized to WKYMVm 10 nM. The essentials:
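HEK293 cells co-expressing human ALX receptor and Gα16 were loaded with 1 μM Fluo-4 AM for 60 min at 37° C., then exposed to serially diluted compounds on FLIPR Tetra. Peak fluorescence above baseline (ex 488/em 540 nm) was normalized to 10 nM WKYMVm as high control.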
On the technique in general: Calcium flux is commonly read through the fluorescence of an indicator in the cells.

A word on the EC50: it is the concentration giving half of the maximal effect.

Counter-ions that a name gives are not always drawn.

For `COc1ccc(CC(NC(=O)NC2CC(C)(C)NC(C)(C)C2)c2nc3ccccc3[nH]2)cc1F` (stereo not drawn) [Example 176, 1-(1-(1H-Benzo[d]imidazol-2-yl)-2-(3-fluoro-4-methoxyphenyl)ethyl)-3-(2,2,6,6-tetramethylpiperidin-4-yl)urea], the EC50 turned out to be 58 nM.

Regarding `COc1ccc(CC(NC(=O)NCCc2cccc(OC)c2)c2nc3ccccc3[nH]2)cc1` (stereo not drawn) [Example 47, 1-(1-(1H-Benzo[d]imidazol-2-yl)-2-(4-methoxyphenyl)ethyl)-3-(3-methoxyphenethyl)urea], the EC50 worked out at 137 nM. Consider `COc1ccc(C[C@@H](NC(=O)NC2CCNC2)c2nc3ccccc3[nH]2)cc1` (stereo partly drawn) [Example 100, 1-((R)-1-(1H-Benzo[d]imidazol-2-yl)-2-(4-methoxyphenyl)ethyl)-3-(pyrrolidin-3-yl)urea], for which the concentration for a half-maximal effect (EC50) is 87 nM.

As for `COc1ccc(C[C@@H](NC(=O)N2CCC3CNCC32)c2nc3ccccc3[nH]2)cc1` (stereo partly drawn) [Example 127, N—((R)-1-(1H-Benzo[d]imidazol-2-yl)-2-(4-methoxyphenyl)ethyl)hexahydropyrrolo[3,4-b]pyrrole-1(2H)-carboxamide], the concentration for a half-maximal effect (EC50) was found to be 246 nM. Under `COc1ccc(C[C@@H](NC(=O)N2CC3CCC2CN3C(=O)OC(C)(C)C)c2nc3ccccc3[nH]2)cc1` (stereo partly drawn) [Example 112, tert-Butyl 5-(((R)-1-(1H-benzo[d]imidazol-2-yl)-2-(4-methoxyphenyl)ethyl)carbamoyl)-2,5-diazabicyclo[2.2.2]octane-2-carboxylate] stands 109 nM; under `COc1ccc(C[C@@H](NC(=O)NCc2ccnn2-c2ccc(OC)cc2)c2nc3ccccc3[nH]2)cc1` [Example 294, (R)-1-(1-(1H-Benzo[d]imidazol-2-yl)-2-(4-methoxyphenyl)ethyl)-3-((1-(4-methoxyphenyl)-1H-pyrazol-5-yl)methyl)urea], 7.6 nM; under `COc1ccc(C[C@@H](NC(=O)NC2CC(C)(C)NC(C)(C)C2)c2nc3ccccc3[nH]2)cc1` [Example 87, (R)-1-(1-(1H-Benzo[d]imidazol-2-yl)-2-(4-methoxyphenyl)ethyl)-3-(2,2,6,6-tetramethylpiperidin-4-yl)urea], 14 nM. Turning to `COc1ccc(CC(NC(=O)N[C@H]2CC[C@H](O)CC2)c2nc3cc(C(F)(F)F)ccc3[nH]2)cc1` (relative stereo) [Example 82, 1-(trans-4-Hydroxycyclohexyl)-3-(2-(4-methoxyphenyl)-1-(5-(trifluoromethyl)-1H-benzo[d]imidazol-2-yl)ethyl)urea], the EC50 turned out to be 2.3 nM. For the compound `COc1ccc(C[C@@H](NC(=O)NCCN2CCNCC2)c2nc3ccccc3[nH]2)cc1` [Example 150, (R)-1-(1-(1H-Benzo[d]imidazol-2-yl)-2-(4-methoxyphenyl)ethyl)-3-(2-(piperazin-1-yl)ethyl)urea], the concentration for a half-maximal effect (EC50) worked out at 209 nM. Under `COc1ccc(C[C@@H](NC(=O)N[C@@H]2CCCN(C(C)=O)C2)c2nc3ccccc3[nH]2)cc1` [Example 140, 1-((R)-1-(1H-Benzo[d]imidazol-2-yl)-2-(4-methoxyphenyl)ethyl)-3-((R)-1-acetylpiperidin-3-yl)urea] stands 62 nM; under “(R)—N-(1-(1H-Benzo[d]imidazol-2-yl)-2-(4-methoxyphenyl)ethyl)-4-acetylpiperazine-1-carboxamide [Example 135]”, 333 nM; under `CC[C@@H](NC(=O)N[C@H](Cc1ccc(OC)cc1)c1nc2ccccc2[nH]1)c1ccccc1` [Example 344, 1-((R)-1-(1H-Benzo[d]imidazol-2-yl)-2-(4-methoxyphenyl)ethyl)-3-((R)-1-phenylpropyl)urea], 167 nM. In the case of `COc1ccc(C[C@@H](NC(=O)NCCc2cnccn2)c2nc3ccccc3[nH]2)cc1` [Example 285, (R)-1-(1-(1H-Benzo[d]imidazol-2-yl)-2-(4-methoxyphenyl)ethyl)-3-(2-(pyrazin-2-yl)ethyl)urea], the half-maximal effective concentration (EC50) was 284 nM. Regarding `COc1ccc(C[C@@H](NC(=O)N2CCC3NCCC32)c2nc3ccccc3[nH]2)cc1` (stereo partly drawn) [Example 128, N—((R)-1-(1H-Benzo[d]imidazol-2-yl)-2-(4-methoxyphenyl)ethyl)hexahydropyrrolo[3,2-b]pyrrole-1(2H)-carboxamide], the EC50 stood at 308 nM. Then `COc1ccc(C[C@@H](NC(=O)N2CC3CC2CN3C(=O)OC(C)(C)C)c2nc3ccccc3[nH]2)cc1` (stereo partly drawn) [Example 382, tert-Butyl 5-(((R)-1-(1H-benzo[d]imidazol-2-yl)-2-(4-methoxyphenyl)ethyl)carbamoyl)-2,5-diazabicyclo[2.2.1]heptane-2-carboxylate], with 1900 nM; and `COc1ccc(C[C@@H](NC(=O)NCc2ccccc2CN(C)C)c2nc3ccccc3[nH]2)cc1` [Example 199, (R)-1-(1-(1H-Benzo[d]imidazol-2-yl)-2-(4-methoxyphenyl)ethyl)-3-(2-((dimethylamino)methyl)benzyl)urea], with 81 nM. Then `COc1ccc(C[C@@H](NC(=O)NCCc2ccc(C)cc2)c2nc3ccccc3[nH]2)cc1` [Example 66, (R)-1-(1-(1H-Benzo[d]imidazol-2-yl)-2-(4-methoxyphenyl)ethyl)-3-(4-methylphenethyl)urea hydrochloride], with 438 nM; and `COc1ccc(C[C@@H](NC(=O)NCCC2CCN(C(C)=O)CC2)c2nc3ccccc3[nH]2)cc1` [Example 159, (R)-1-(1-(1H-Benzo[d]imidazol-2-yl)-2-(4-methoxyphenyl)ethyl)-3-(2-(1-acetylpiperidin-4-yl)ethyl)urea], with 876 nM.

For `CC(F)(F)c1ccc(CC(NC(=O)N[C@H]2CC[C@H](O)CC2)c2nc3ccccc3[nH]2)cc1` (relative stereo) [Example 393, 1-(1-(1H-Benzo[d]imidazol-2-yl)-2-(4-(1,1-difluoroethyl)phenyl)ethyl)-3-(trans-4-hydroxycyclohexyl)urea], the EC50 was determined as 3.9 nM. Then `COc1ccc(C[C@@H](NC(=O)Nc2ccon2)c2nc3ccccc3[nH]2)cc1` [Example 379, (R)-1-(1-(1H-Benzo[d]imidazol-2-yl)-2-(4-methoxyphenyl)ethyl)-3-(isoxazol-3-yl)urea hydrochloride], with 1090 nM; and `COc1ccc(C[C@@H](NC(=O)N2CC3CCC2CN3)c2nc3ccccc3[nH]2)cc1` (stereo partly drawn) [Example 122, N—((R)-1-(1H-Benzo[d]imidazol-2-yl)-2-(4-methoxyphenyl)ethyl)-2,5-diazabicyclo[2.2.2]octane-2-carboxamide], with 59 nM. On to `COc1ccc(C[C@@H](NC(=O)N[C@H]2CC[C@H](O)CC2)c2nc3ccc(C#N)cc3[nH]2)cc1` [Example 152, 1-((R)-1-(6-Cyano-1H-benzo[d]imidazol-2-yl)-2-(4-methoxyphenyl)ethyl)-3-(trans-4-hydroxycyclohexyl)urea], for which the concentration giving a half-maximal response (EC50) came to 6.2 nM.

Turning to `COc1ccc(C[C@@H](NC(=O)N(CCO)C2CCCCC2)c2nc3ccccc3[nH]2)cc1` [Example 111, (R)-3-(1-(1H-Benzo[d]imidazol-2-yl)-2-(4-methoxyphenyl)ethyl)-1-cyclohexyl-1-(2-hydroxyethyl)urea], the concentration giving a half-maximal response (EC50) turned out to be 142 nM. Under `O=C(N[C@H](Cc1ccc(Br)cc1)c1nc2ccc(F)cc2[nH]1)NC12CCC(O)(CC1)CC2` [Example 195, (R)-1-(2-(4-Bromophenyl)-1-(6-fluoro-1H-benzo[d]imidazol-2-yl)ethyl)-3-(4-hydroxybicyclo[2.2.2]octan-1-yl)urea] stands 1.1 nM. Then `COc1ccc(C[C@@H](NC(=O)NC2CCCC(C(=O)O)C2)c2nc3ccccc3[nH]2)cc1` (stereo partly drawn) [Example 229, Lithium 3-(3-((R)-1-(1H-benzo[d]imidazol-2-yl)-2-(4-methoxyphenyl)ethyl)ureido)cyclohexanecarboxylate], with 94 nM; and `COc1ccc(C[C@@H](NC(=O)NCc2nccnc2OCC(F)(F)F)c2nc3ccccc3[nH]2)cc1` [Example 217, (R)-1-(1-(1H-Benzo[d]imidazol-2-yl)-2-(4-methoxyphenyl)ethyl)-3-((3-(2,2,2-trifluoroethoxy)pyrazin-2-yl)methyl)urea], with 19 nM. Under `COc1ccc(C[C@@H](NC(=O)NC23CCN(CC2)CC3)c2nc3ccccc3[nH]2)cc1` [Example 170, (R)-1-(1-(1H-Benzo[d]imidazol-2-yl)-2-(4-methoxyphenyl)ethyl)-3-(quinuclidin-4-yl)urea] stands 76 nM. In the case of `COc1ccc(C[C@@H](NC(=O)N[C@H](CO)c2ccccc2)c2nc3ccccc3[nH]2)cc1` [Example 203, 1-((R)-1-(1H-Benzo[d]imidazol-2-yl)-2-(4-methoxyphenyl)ethyl)-3-((S)-2-hydroxy-1-phenylethyl)urea], the EC50 was found to be 176 nM. Take `COc1ccc(CC(NC(=O)N[C@H]2CC[C@H](O)CC2)c2nc3ccc(F)cc3[nH]2)c(F)c1` (single isomer, unassigned; ent-1) [Example 260, 1-(1-(6-Fluoro-1H-benzo[d]imidazol-2-yl)-2-(2-fluoro-4-methoxyphenyl)ethyl)-3-(trans-4-hydroxycyclohexyl)urea (ent-1)]: the EC50 came out at 0.4 nM.

As for `COc1ccc(C[C@@H](NC(=O)N[C@H]2CCc3ccccc32)c2nc3ccccc3[nH]2)cc1` [Example 20, 1-((R)-1-(1H-Benzo[d]imidazol-2-yl)-2-(4-methoxyphenyl)ethyl)-3-((S)-2,3-dihydro-1H-inden-1-yl)urea], the EC50 turned out to be 712 nM.

(Values after patent US9663473B2 (Actelion Pharmaceuticals Ltd, priority 2013, dated 2017).)
